Source: US20090030086A1, “ANTIMICROBIAL AGENTS” (priority 2005, published 2009)
In brackets after ≈: the same amount, converted by molar mass. Read-outs that look alike come from different tables or passages of the source.

Assays:
[1] = tested on: S. aureus ATCC 29213; test: MBC assay; format: cell-based, Staphylococcus aureus
Experimental: (§1) The staphylococci and enterococci were cultured and maintained on Mueller-Hinton Medium (agar and broth) at pH 7.2; they were incubated aerobically at 37° C. for 24 hours.
(§2) This assay, normally carried out after an MIC assay, determines the minimum concentration of a compound that is lethal to the micro-organism being tested.
(§3) These samples were then individually sub-cultured on non-selective agar medium, under the incubation conditions described above. Following incubation they were examined visually for bacterial growth.
(§4) The following experiments all used S. aureus ATCC 29213 as the test organism. MIC, MBC and DDA assays, as described above, were carried out using a range of different benzoquinones and hydroquinones. Supplemented DDA assays, in the presence of salt, lipid and blood, were also conducted.

[2] = tested on: P. acnes NCTC 737; test: MIC assay; format: cell-based, Propionibacterium acnes
Experimental: 2. Propionibacterium spp.—the principal propionibacterial strain used in these studies was Propionibacterium acnes NCTC 737.
(§5) The Propionibacterium spp organisms were cultured and maintained on Wilkins-Chalgren Anaerobe Medium (agar and broth) at pH 6.0; cultures were incubated anaerobically at 37° C. for 72 hours.
(§6) This is a standard international method for quantitatively assessing the antimicrobial activity of a compound in a liquid medium. The method used a 96-well microtitre plate, capable of holding about 200 μl of liquid per well. […] The culture media were as described above for the relevant test organisms.
(§7) The wells were inoculated with a liquid suspension of freshly grown micro-organism and incubated under the conditions described above. After incubation, the microtitre plate was examined visually (with the aid of a light box) for cloudiness in each well, which would indicate microbial growth. The MIC value was recorded as the lowest concentration of test compound required to inhibit microbial growth, i.e., the lowest concentration for which the liquid in the well remained clear.
(§8) The assays were conducted in duplicate and included both negative (culture medium only) and positive (culture medium, diluting solvent and inoculum) controls.
(§9) MIC, MBC and DDA assays, as described above, were carried out using a range of different benzoquinones and hydroquinones. Supplemented DDA assays, in the presence of salt and lipid, were also conducted.

[3] = tested on: P. acnes NCTC 737; test: MBC assay; format: cell-based, Propionibacterium acnes
Experimental: as §5, §2, §3, §9

[4] = tested on: S. aureus ATCC 29213; test: Disc diffusion assay (DDA); format: cell-based, Staphylococcus aureus; conditions: for zone of inhibition at 200 µg/disc: Staphylococcus aureus
Experimental: as §1
(§10) A sterile paper disc was impregnated with a sample of the test compound and a minimum of 30 minutes allowed for the solvents to evaporate as far as possible. The disc was then placed on an agar plate onto which the test micro-organism had been inoculated. The plate was then incubated under the conditions described above, following which it was examined visually for signs of bacterial growth. […] The diameter of this zone of “inhibition” was measured using a ProtoCOL™ automated zone sizer (Synbiosis, Cambridge, UK).
(§11) The area of the zone of inhibition was calculated from the measured zone diameter (D) using the formula π(D/2)^2.
(§12) For most DDA assays, 200 μg of each compound was loaded onto each disc.

[5] = tested on: S. aureus ATCC 29213; test: MIC assay; format: cell-based, Staphylococcus aureus
Experimental: 1. Staphylococcus aureus—the principal staphylococcal test micro-organism used in these studies was Staphylococcus aureus ATCC 29213. This strain is the one recommended for QC/QA purposes in Minimum Inhibitory Concentration (MIC) assays by the US Clinical and Laboratory Standards Institute (formerly the NCCLS), an FDA-recognised body.
as §1, §6, §7, §8, §4

[6] = tested on: P. acnes NCTC 737; test: Disc diffusion assay (DDA); format: cell-based, Propionibacterium acnes; conditions: for zone of inhibition at 200 µg/disc: Cutibacterium acnes
Experimental: as §5, §10, §11, §12

[7] = tested on: P. acnes NCTC 737; test: Supplemented disc diffusion assay; format: cell-based, Propionibacterium acnes; conditions: for zone of inhibition at 200 µg/disc: Cutibacterium acnes, NCTC737, 72 h; for effect of lipid on antimicrobial activity: activity increases in the presence of lipid
Experimental: as §5, §10
(§13) Performance under these conditions can provide a more reliable indication of activity on topical application. For assays conducted using S. aureus strains, the supplements were defibrinated horse blood (5% v/v), lipid (Tween™ 80 at 1% v/v) and sodium chloride (100 mM). For those using Propionibacterium spp. strains, the supplements were lipid (Tween™ 80 at 1% v/v) and sodium chloride (100 mM).
as §9, §12

[8] = tested on: S. aureus ATCC 29213; test: Supplemented disc diffusion assay; format: cell-based, Staphylococcus aureus; conditions: for zone of inhibition at 200 µg/disc: Staphylococcus aureus, ATCC29213, 24 h
Experimental: as §1, §10, §13, §4, §12

[9] = Staphylococcus aureus, ATCC29213
[10] = Cutibacterium acnes, NCTC737, 72 h, pH 6
[11] = ATCC29213, read-out: DDA (diameter of zone of inhibition)
[12] = Staphylococcus aureus, ATCC29213, 24 h, pH 7.2
[13] = NCTC737, read-out: DDA (diameter of zone of inhibition)
[14] = P. acnes NCTC 737, Wilkins-Chalgren broth pH 6.0, anaerobic, 37° C., 72 hours
[15] = S. aureus ATCC 29213, unsupplemented agar, 200 μg per disc (thymoquinone 50 μg, 2,6-dimethoxy-p-benzoquinone 100 μg)
[16] = S. aureus ATCC 29213, Mueller-Hinton broth pH 7.2, aerobic, 37° C., 24 hours
[17] = P. acnes NCTC 737, unsupplemented agar, 200 μg per disc (2,6-dimethoxy-p-benzoquinone 100 μg)
[18] = P. acnes NCTC 737, Tween 80 at 1% v/v, 200 μg per disc (2,6-dimethoxy-p-benzoquinone 100 μg)
[19] = P. acnes NCTC 737, sodium chloride 100 mM, 200 μg per disc (2,6-dimethoxy-p-benzoquinone 100 μg)

Compound	MIC/MBC ratio [1]	MIC [2, 10] [µg/mL]	MBC ([3]; Cutibacterium acnes, NCTC737) [µg/mL]	MIC/MBC ratio ([3]; P. acnes NCTC 737)	zone of inhibition at 200 µg/disc [6, 13] [mm]	zone of inhibition at 200 µg/disc ([7]; read-out: DDA + lipid) [mm]	zone of inhibition at 200 µg/disc ([7]; read-out: DDA + salt) [mm]	MIC [2, 14] [µg/mL]	DDA (diameter of zone of inhibition) [4, 15] [mm]	MIC [5, 16] [µg/mL]	DDA (diameter of zone of inhibition) [6, 17] [mm]	DDA + lipid [7, 18] [mm]	also measured
O=C1C=CC(=O)C(Cl)=C1 [2-chloro-p-benzoquinone]	1	62.5 (≈ 438 µM)	125 (≈ 877 µM)	0.5	25.8	31.4	31.7	–	–	–	–	–	MBC [1, 9]: 31.2 µg/mL (≈ 219 µM); activity against P. acnes NCTC 737 (in words) [2]: strongly so; zone of inhibition at 200 µg/disc [4, 11]: 25.3 mm; MIC [5, 12]: 31.2 µg/mL (≈ 219 µM); effect of lipid on antimicrobial activity ([7]; P. acnes NCTC 737): potentiated; zone of inhibition at 200 µg/disc ([8]; read-out: DDA + blood): 17.2 mm; zone of inhibition at 200 µg/disc ([8]; read-out: DDA + lipid): 22.8 mm; zone of inhibition at 200 µg/disc ([8]; read-out: DDA + salt): 26.2 mm
COC1=CC(=O)C=C(OC)C1=O [2,6-dimethoxy-p-benzoquinone]	0.5	15.6 (≈ 92.8 µM)	31.2 (≈ 186 µM)	0.5	0	15.6	16.5	–	–	–	–	–	MBC [1, 9]: 15.6 µg/mL (≈ 92.8 µM); zone of inhibition at 200 µg/disc [4, 11]: 22.2 mm; activity against S. aureus ATCC 29213 (in words) [5]: strongly so; MIC [5, 12]: 7.8 µg/mL (≈ 46.4 µM); zone of inhibition at 200 µg/disc ([8]; read-out: DDA + blood): 17.2 mm; zone of inhibition at 200 µg/disc ([8]; read-out: DDA + lipid): 23.7 mm; zone of inhibition at 200 µg/disc ([8]; read-out: DDA + salt): 22.2 mm
COC1=C(OC)C(=O)C(C)=CC1=O [2,3-dimethoxy-5-methyl-p-benzoquinone]	0.5	–	–	0.5	–	–	–	–	–	–	–	–	MBC ([1]; Staphylococcus aureus, ATCC29213, read-out: MBC): 15.6 µg/mL (≈ 85.6 µM); MIC ([2]; Cutibacterium acnes, NCTC737, P. acnes NCTC 737, Wilkins-Chalgren broth pH 6.0, anaerobic, 37° C., 72 hours, read-out: MIC): 15.6 µg/mL (≈ 85.6 µM); MBC ([3]; Cutibacterium acnes, NCTC737, P. acnes NCTC 737, read-out: MBC): 31.2 µg/mL (≈ 172 µM); zone of inhibition at 200 µg/disc ([4]; ATCC29213, S. aureus ATCC 29213, unsupplemented agar, 200 μg per disc (thymoquinone 50 μg, 2,6-dimethoxy-p-benzoquinone 100 μg), read-out: DDA (diameter of zone of inhibition)): 26.8 mm; MIC ([5]; Staphylococcus aureus, ATCC29213, S. aureus ATCC 29213, Mueller-Hinton broth pH 7.2, aerobic, 37° C., 24 hours, read-out: MIC): 7.8 µg/mL (≈ 42.8 µM); zone of inhibition at 200 µg/disc ([6]; NCTC737, P. acnes NCTC 737, unsupplemented agar, 200 μg per disc (2,6-dimethoxy-p-benzoquinone 100 μg), read-out: DDA (diameter of zone of inhibition)): 33.4 mm; zone of inhibition at 200 µg/disc ([7]; P. acnes NCTC 737, Tween 80 at 1% v/v, 200 μg per disc (2,6-dimethoxy-p-benzoquinone 100 μg), read-out: DDA + lipid): 44 mm; zone of inhibition at 200 µg/disc ([7]; P. acnes NCTC 737, sodium chloride 100 mM, 200 μg per disc (2,6-dimethoxy-p-benzoquinone 100 μg), read-out: DDA + salt): 43.4 mm; effect of lipid on antimicrobial activity ([7]; P. acnes NCTC 737): potentiated; zone of inhibition at 200 µg/disc ([8]; S. aureus ATCC 29213, Tween 80 at 1% v/v, 200 μg per disc (thymoquinone 50 μg, 2,6-dimethoxy-p-benzoquinone 100 μg), read-out: DDA + lipid): 26.5 mm; zone of inhibition at 200 µg/disc ([8]; S. aureus ATCC 29213, defibrinated horse blood 5% v/v, 200 μg per disc (thymoquinone 50 μg, 2,6-dimethoxy-p-benzoquinone 100 μg), read-out: DDA + blood): 19.9 mm; zone of inhibition at 200 µg/disc ([8]; S. aureus ATCC 29213, sodium chloride 100 mM, 200 μg per disc (thymoquinone 50 μg, 2,6-dimethoxy-p-benzoquinone 100 μg), read-out: DDA + salt): 25.8 mm
Cc1c(O)ccc(O)c1C [2,3-dimethyl-p-hydroquinone]	1	–	–	0.5	–	–	–	7.8 (≈ 56.5 µM)	33.41	7.8 (≈ 56.5 µM)	18.75	–	MBC [1]: 7.8 µg/mL (≈ 56.5 µM)
Oc1cc(Cl)c(O)cc1Cl [2,5-dichloro-p-hydroquinone]	1	–	–	1	–	–	–	62.5 (≈ 349 µM)	19.90	15.6 (≈ 87.1 µM)	13.46	0.0	MBC [1]: 15.6 µg/mL (≈ 87.1 µM); MBC ([3]; P. acnes NCTC 737): 62.5 µg/mL (≈ 349 µM); DDA + salt [7, 19]: 18.64 mm; DDA + lipid ([8]; S. aureus ATCC 29213, Tween 80 at 1% v/v, 200 μg per disc (thymoquinone 50 μg, 2,6-dimethoxy-p-benzoquinone 100 μg)): 15.63 mm; DDA + blood ([8]; S. aureus ATCC 29213, defibrinated horse blood 5% v/v, 200 μg per disc (thymoquinone 50 μg, 2,6-dimethoxy-p-benzoquinone 100 μg)): 13.44 mm; DDA + salt ([8]; S. aureus ATCC 29213, sodium chloride 100 mM, 200 μg per disc (thymoquinone 50 μg, 2,6-dimethoxy-p-benzoquinone 100 μg)): 18.75 mm
CCc1cc(O)ccc1O [2-ethyl-p-hydroquinone]	0.5	–	–	0.25	–	–	–	7.8 (≈ 56.5 µM)	21.06	7.8 (≈ 56.5 µM)	9.90	0.0	–
Cc1cc(O)ccc1O [2-methyl-p-hydroquinone]	1	–	–	0.5	–	–	–	62.5 (≈ 503 µM)	25.70	–	0.0	13.07	MBC ([3]; P. acnes NCTC 737): 125 µg/mL (≈ 1010 µM); DDA + salt [7, 19]: 0.0 mm
O=C1C(Cl)=C(Cl)C(=O)C(Cl)=C1Cl [tetrachloro-p-benzoquinone]	–	31.2 (≈ 127 µM)	62.5 (≈ 254 µM)	0.5	11.6	12.7	18.9	–	–	–	–	–	–
